#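 Five compound concentrations were applied to cells in 96-well plates for 48 hours; endpoints were derived by simple linear interpolation of the resulting dose-response curve. At the GI50, growth is halved. TGI is the concentration that stops growth completely.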
# How the values were obtained:
# Experiment in all cases: inhibition of tumour cell growth, NCI panel, 48 h
# U251 CNS = system: U251 CNS
# RPMI-8226 leukemia = system: RPMI-8226 leukemia
# NCI/ADR-RES ovarian = system: NCI/ADR-RES ovarian
# UO-31 renal = system: UO-31 renal
# A549 NSCLC = system: A549 NSCLC
# SN12C renal = system: SN12C renal
# SK-OV-3 ovarian = system: SK-OV-3 ovarian
# A498 renal = system: A498 renal
# SF-539 CNS = system: SF-539 CNS
# T-47D breast = system: T-47D breast
# UACC-62 melanoma = system: UACC-62 melanoma
# TK-10 renal = system: TK-10 renal
# HCC-2998 colon = system: HCC-2998 colon
# RXF 393 renal = system: RXF 393 renal
# CCRF-CEM leukemia = system: CCRF-CEM leukemia
# LOX IMVI melanoma = system: LOX IMVI melanoma
# SR leukemia = system: SR leukemia
# EKVX NSCLC = system: EKVX NSCLC
# OVCAR-5 ovarian = system: OVCAR-5 ovarian
# DU-145 prostate = system: DU-145 prostate
# MALME-3M melanoma = system: MALME-3M melanoma
# MDA-MB-435 = system: MDA-MB-435
# SK-MEL-5 melanoma = system: SK-MEL-5 melanoma
# MCF7 breast = system: MCF7 breast
# HT29 colon = system: HT29 colon
# CAKI-1 renal = system: CAKI-1 renal
# 786-0 renal = system: 786-0 renal
# OVCAR-3 ovarian = system: OVCAR-3 ovarian
# UACC-257 melanoma = system: UACC-257 melanoma
# NCI-H226 lung = system: NCI-H226 lung
# KM12 colon = system: KM12 colon
# IGROV1 ovarian = system: IGROV1 ovarian
# NCI-H522 lung = system: NCI-H522 lung
# PC-3 prostate = system: PC-3 prostate
# MDA-MB-231 breast = system: MDA-MB-231 breast
# SW-620 colon = system: SW-620 colon
# HOP-62 NSCLC = system: HOP-62 NSCLC
# COLO 205 colon = system: COLO 205 colon
# ACHN renal = system: ACHN renal
# HS 578T breast = system: HS 578T breast
# SF-295 CNS = system: SF-295 CNS
# SK-MEL-28 melanoma = system: SK-MEL-28 melanoma
# SK-MEL-2 melanoma = system: SK-MEL-2 melanoma
# SNB-19 CNS = system: SNB-19 CNS
# SF-268 CNS = system: SF-268 CNS
# NCI-H23 lung = system: NCI-H23 lung
# OVCAR-8 ovarian = system: OVCAR-8 ovarian
# MDA-MB-468 breast = system: MDA-MB-468 breast
# BT-549 breast = system: BT-549 breast
# OVCAR-4 ovarian = system: OVCAR-4 ovarian
# HCT-15 colon = system: HCT-15 colon
# HOP-92 NSCLC = system: HOP-92 NSCLC
# MOLT-4 leukemia = system: MOLT-4 leukemia
# M14 melanoma = system: M14 melanoma
# K-562 leukemia = system: K-562 leukemia
# HL-60(TB) leukemia = system: HL-60(TB) leukemia
# NCI-H460 lung = system: NCI-H460 lung
# HCT-116 colon = system: HCT-116 colon
smiles,measurement,setting,value
CCN1CCN(Cc2ccc(C(=O)Nc3cccc(C#Cc4cccc5[nH]nc(N)c45)c3)cc2C(F)(F)F)CC1,GI50,U251 CNS,1.51 µM
same,TGI,U251 CNS,2.85 µM
same,GI50,RPMI-8226 leukemia,1.59 µM
same,TGI,RPMI-8226 leukemia,3.92 µM
same,GI50,NCI/ADR-RES ovarian,1.8 µM
same,TGI,NCI/ADR-RES ovarian,4.04 µM
same,GI50,UO-31 renal,1.43 µM
same,TGI,UO-31 renal,2.93 µM
same,GI50,A549 NSCLC,1.3 µM
same,TGI,A549 NSCLC,2.6 µM
same,GI50,SN12C renal,1.18 µM
same,TGI,SN12C renal,2.48 µM
same,GI50,SK-OV-3 ovarian,2.19 µM
same,TGI,SK-OV-3 ovarian,4.56 µM
same,GI50,A498 renal,2.54 µM
same,TGI,A498 renal,4.21 µM
same,GI50,SF-539 CNS,0.533 µM
same,TGI,SF-539 CNS,1.76 µM
same,GI50,T-47D breast,2.25 µM
same,TGI,T-47D breast,6.18 µM
same,GI50,UACC-62 melanoma,1.32 µM
same,TGI,UACC-62 melanoma,2.62 µM
same,GI50,TK-10 renal,1.89 µM
same,TGI,TK-10 renal,3.38 µM
same,GI50,HCC-2998 colon,1.3 µM
same,TGI,HCC-2998 colon,2.56 µM
same,GI50,RXF 393 renal,1.1 µM
same,TGI,RXF 393 renal,2.49 µM
same,GI50,CCRF-CEM leukemia,1.6 µM
same,TGI,CCRF-CEM leukemia,3.62 µM
same,GI50,LOX IMVI melanoma,0.739 µM
same,TGI,LOX IMVI melanoma,1.99 µM
same,GI50,SR leukemia,1.78 µM
same,TGI,SR leukemia,4.59 µM
same,GI50,EKVX NSCLC,1.35 µM
same,TGI,EKVX NSCLC,2.79 µM
same,GI50,OVCAR-5 ovarian,1.47 µM
same,TGI,OVCAR-5 ovarian,3.03 µM
same,GI50,DU-145 prostate,1.53 µM
same,TGI,DU-145 prostate,3.12 µM
same,GI50,MALME-3M melanoma,0.509 µM
same,TGI,MALME-3M melanoma,1.82 µM
same,GI50,MDA-MB-435,1.23 µM
same,TGI,MDA-MB-435,2.5 µM
same,GI50,SK-MEL-5 melanoma,1.54 µM
same,TGI,SK-MEL-5 melanoma,2.9 µM
same,GI50,MCF7 breast,1.61 µM
same,TGI,MCF7 breast,3.05 µM
same,GI50,HT29 colon,1.1 µM
same,TGI,HT29 colon,2.45 µM
same,GI50,CAKI-1 renal,1.45 µM
same,TGI,CAKI-1 renal,2.78 µM
same,GI50,786-0 renal,1.47 µM
same,TGI,786-0 renal,2.84 µM
same,GI50,OVCAR-3 ovarian,1.18 µM
same,TGI,OVCAR-3 ovarian,2.86 µM
same,GI50,UACC-257 melanoma,1.47 µM
same,TGI,UACC-257 melanoma,2.86 µM
same,GI50,NCI-H226 lung,1.19 µM
same,TGI,NCI-H226 lung,3.6 µM
same,GI50,KM12 colon,1.66 µM
same,TGI,KM12 colon,3.27 µM
same,GI50,IGROV1 ovarian,0.965 µM
same,TGI,IGROV1 ovarian,2.48 µM
same,GI50,NCI-H522 lung,1.1 µM
same,TGI,NCI-H522 lung,2.4 µM
same,GI50,PC-3 prostate,1.3 µM
same,TGI,PC-3 prostate,2.78 µM
same,GI50,MDA-MB-231 breast,0.919 µM
same,TGI,MDA-MB-231 breast,2.14 µM
same,GI50,SW-620 colon,1.23 µM
same,TGI,SW-620 colon,2.81 µM
same,GI50,HOP-62 NSCLC,1.73 µM
same,TGI,HOP-62 NSCLC,3.64 µM
same,GI50,COLO 205 colon,1.19 µM
same,TGI,COLO 205 colon,2.72 µM
same,GI50,ACHN renal,0.598 µM
same,TGI,ACHN renal,1.87 µM
same,GI50,HS 578T breast,2.14 µM
same,TGI,HS 578T breast,6.68 µM
same,GI50,SF-295 CNS,1.43 µM
same,TGI,SF-295 CNS,2.82 µM
same,GI50,SK-MEL-28 melanoma,1.63 µM
same,TGI,SK-MEL-28 melanoma,3 µM
same,GI50,SK-MEL-2 melanoma,1.47 µM
same,TGI,SK-MEL-2 melanoma,2.93 µM
same,GI50,SNB-19 CNS,1.95 µM
same,TGI,SNB-19 CNS,3.63 µM
same,GI50,SF-268 CNS,1.43 µM
same,TGI,SF-268 CNS,3.33 µM
same,GI50,NCI-H23 lung,1.41 µM
same,TGI,NCI-H23 lung,2.76 µM
same,GI50,OVCAR-8 ovarian,1.43 µM
same,TGI,OVCAR-8 ovarian,2.8 µM
same,GI50,MDA-MB-468 breast,1.03 µM
same,TGI,MDA-MB-468 breast,2.32 µM
same,GI50,BT-549 breast,1.64 µM
same,TGI,BT-549 breast,3.06 µM
same,GI50,OVCAR-4 ovarian,1.04 µM
same,TGI,OVCAR-4 ovarian,5.3 µM
same,GI50,HCT-15 colon,0.721 µM
same,TGI,HCT-15 colon,2.02 µM
O=S(=O)(Nc1cccc(-n2cnc3cc(-c4ccc(O)cc4)ccc32)c1)C1CC1,GI50,U251 CNS,2.65 µM
same,TGI,U251 CNS,13.8 µM
same,GI50,RPMI-8226 leukemia,2.83 µM
same,TGI,RPMI-8226 leukemia,9.46 µM
same,GI50,HOP-92 NSCLC,1.43 µM
same,TGI,HOP-92 NSCLC,8.43 µM
same,GI50,NCI/ADR-RES ovarian,3.52 µM
same,TGI,NCI/ADR-RES ovarian,36.5 µM
same,GI50,MOLT-4 leukemia,2.01 µM
same,TGI,MOLT-4 leukemia,14.1 µM
same,GI50,UO-31 renal,2.19 µM
same,TGI,UO-31 renal,13.9 µM
same,GI50,A549 NSCLC,4.04 µM
same,TGI,A549 NSCLC,17.1 µM
same,GI50,SN12C renal,3.7 µM
same,TGI,SN12C renal,15.1 µM
same,GI50,M14 melanoma,2.36 µM
same,TGI,M14 melanoma,17.6 µM
same,GI50,SK-OV-3 ovarian,3.84 µM
same,TGI,SK-OV-3 ovarian,13.4 µM
same,GI50,A498 renal,3.31 µM
same,TGI,A498 renal,10.4 µM
same,GI50,SF-539 CNS,1.53 µM
same,TGI,SF-539 CNS,6.1 µM
same,GI50,T-47D breast,2.73 µM
same,TGI,T-47D breast,14.5 µM
same,GI50,UACC-62 melanoma,1.62 µM
same,TGI,UACC-62 melanoma,14.3 µM
same,GI50,TK-10 renal,8.98 µM
same,TGI,TK-10 renal,20.9 µM
same,GI50,HCC-2998 colon,4.4 µM
same,TGI,HCC-2998 colon,19.6 µM
same,GI50,RXF 393 renal,2.19 µM
same,TGI,RXF 393 renal,7.7 µM
same,GI50,CCRF-CEM leukemia,2.62 µM
same,TGI,CCRF-CEM leukemia,14.5 µM
same,GI50,LOX IMVI melanoma,3.14 µM
same,TGI,LOX IMVI melanoma,14.7 µM
same,GI50,SR leukemia,0.391 µM
same,TGI,SR leukemia,65.5 µM
same,GI50,EKVX NSCLC,6.56 µM
same,TGI,EKVX NSCLC,21.6 µM
same,GI50,OVCAR-5 ovarian,6.77 µM
same,TGI,OVCAR-5 ovarian,20.6 µM
same,GI50,DU-145 prostate,4.19 µM
same,TGI,DU-145 prostate,15 µM
same,GI50,MALME-3M melanoma,3.54 µM
same,TGI,MALME-3M melanoma,18.4 µM
same,GI50,K-562 leukemia,0.546 µM
same,TGI,K-562 leukemia,> 100 µM
same,GI50,MDA-MB-435,0.311 µM
same,TGI,MDA-MB-435,1.33 µM
same,GI50,SK-MEL-5 melanoma,3.13 µM
same,TGI,SK-MEL-5 melanoma,14.1 µM
same,GI50,MCF7 breast,1.96 µM
same,TGI,MCF7 breast,16.8 µM
same,GI50,HT29 colon,2.6 µM
same,TGI,HT29 colon,8.59 µM
same,GI50,CAKI-1 renal,3.25 µM
same,TGI,CAKI-1 renal,14.6 µM
same,GI50,786-0 renal,4.7 µM
same,TGI,786-0 renal,16.9 µM
same,GI50,OVCAR-3 ovarian,2.14 µM
same,TGI,OVCAR-3 ovarian,10.3 µM
same,GI50,UACC-257 melanoma,10.2 µM
same,TGI,UACC-257 melanoma,22 µM
same,GI50,NCI-H226 lung,6.23 µM
same,TGI,NCI-H226 lung,27.8 µM
same,GI50,KM12 colon,0.654 µM
same,TGI,KM12 colon,13.2 µM
same,GI50,IGROV1 ovarian,4.58 µM
same,TGI,IGROV1 ovarian,17.7 µM
same,GI50,NCI-H522 lung,0.82 µM
same,TGI,NCI-H522 lung,3.66 µM
same,GI50,PC-3 prostate,3.2 µM
same,TGI,PC-3 prostate,17 µM
same,GI50,MDA-MB-231 breast,3.4 µM
same,TGI,MDA-MB-231 breast,20.8 µM
same,GI50,HL-60(TB) leukemia,1.38 µM
same,TGI,HL-60(TB) leukemia,5.63 µM
same,GI50,SW-620 colon,1.5 µM
same,TGI,SW-620 colon,17.4 µM
same,GI50,HOP-62 NSCLC,4.63 µM
same,TGI,HOP-62 NSCLC,19.4 µM
same,GI50,COLO 205 colon,3.17 µM
same,TGI,COLO 205 colon,11.1 µM
same,GI50,ACHN renal,4.86 µM
same,TGI,ACHN renal,16.8 µM
same,GI50,HS 578T breast,1.93 µM
same,TGI,HS 578T breast,7.42 µM
same,GI50,SF-295 CNS,2.36 µM
same,TGI,SF-295 CNS,11.4 µM
same,GI50,NCI-H460 lung,3.03 µM
same,TGI,NCI-H460 lung,13 µM
same,GI50,SK-MEL-28 melanoma,6.68 µM
same,TGI,SK-MEL-28 melanoma,20 µM
same,GI50,SK-MEL-2 melanoma,2.87 µM
same,TGI,SK-MEL-2 melanoma,14.5 µM
same,GI50,SNB-19 CNS,5.95 µM
same,TGI,SNB-19 CNS,19.8 µM
same,GI50,SF-268 CNS,3.79 µM
same,TGI,SF-268 CNS,17.2 µM
same,GI50,NCI-H23 lung,5.04 µM
same,TGI,NCI-H23 lung,20.6 µM
same,GI50,OVCAR-8 ovarian,3.23 µM
same,TGI,OVCAR-8 ovarian,14.5 µM
same,GI50,MDA-MB-468 breast,1.44 µM
same,TGI,MDA-MB-468 breast,6.58 µM
same,GI50,HCT-116 colon,2.82 µM
same,TGI,HCT-116 colon,15.3 µM
same,GI50,BT-549 breast,2.59 µM
same,TGI,BT-549 breast,12.5 µM
same,GI50,OVCAR-4 ovarian,4.03 µM
same,TGI,OVCAR-4 ovarian,17.3 µM
same,GI50,HCT-15 colon,1.62 µM
same,TGI,HCT-15 colon,14.1 µM

# — PubChem BioAssay (NCI)
